Experiments:
Assay in all cases: KINOMEscan competition binding
Details in all cases: compound 10.0 µM
EPHA2 (human) = EPHA2 (human) (UniProt P29317)
MAP3K9 (human) = MAP3K9 (human) (UniProt P80192)
CHEK2 (human) = CHEK2 (human) (UniProt O96017)
PAK6 (human) = PAK6 (human) (UniProt Q9NQU5)
BRSK1 (human) = BRSK1 (human) (UniProt Q8TDC3)
MST1R (human) = MST1R (human) (UniProt Q04912)
PTK2 (human) = PTK2 (human) (UniProt Q05397)
PRKD2 (human) = PRKD2 (human) (UniProt Q9BZL6)
FLT4 (human) = FLT4 (human) (UniProt P35916)
FLT4 (human), sequence (P35916 whole entry, looked up): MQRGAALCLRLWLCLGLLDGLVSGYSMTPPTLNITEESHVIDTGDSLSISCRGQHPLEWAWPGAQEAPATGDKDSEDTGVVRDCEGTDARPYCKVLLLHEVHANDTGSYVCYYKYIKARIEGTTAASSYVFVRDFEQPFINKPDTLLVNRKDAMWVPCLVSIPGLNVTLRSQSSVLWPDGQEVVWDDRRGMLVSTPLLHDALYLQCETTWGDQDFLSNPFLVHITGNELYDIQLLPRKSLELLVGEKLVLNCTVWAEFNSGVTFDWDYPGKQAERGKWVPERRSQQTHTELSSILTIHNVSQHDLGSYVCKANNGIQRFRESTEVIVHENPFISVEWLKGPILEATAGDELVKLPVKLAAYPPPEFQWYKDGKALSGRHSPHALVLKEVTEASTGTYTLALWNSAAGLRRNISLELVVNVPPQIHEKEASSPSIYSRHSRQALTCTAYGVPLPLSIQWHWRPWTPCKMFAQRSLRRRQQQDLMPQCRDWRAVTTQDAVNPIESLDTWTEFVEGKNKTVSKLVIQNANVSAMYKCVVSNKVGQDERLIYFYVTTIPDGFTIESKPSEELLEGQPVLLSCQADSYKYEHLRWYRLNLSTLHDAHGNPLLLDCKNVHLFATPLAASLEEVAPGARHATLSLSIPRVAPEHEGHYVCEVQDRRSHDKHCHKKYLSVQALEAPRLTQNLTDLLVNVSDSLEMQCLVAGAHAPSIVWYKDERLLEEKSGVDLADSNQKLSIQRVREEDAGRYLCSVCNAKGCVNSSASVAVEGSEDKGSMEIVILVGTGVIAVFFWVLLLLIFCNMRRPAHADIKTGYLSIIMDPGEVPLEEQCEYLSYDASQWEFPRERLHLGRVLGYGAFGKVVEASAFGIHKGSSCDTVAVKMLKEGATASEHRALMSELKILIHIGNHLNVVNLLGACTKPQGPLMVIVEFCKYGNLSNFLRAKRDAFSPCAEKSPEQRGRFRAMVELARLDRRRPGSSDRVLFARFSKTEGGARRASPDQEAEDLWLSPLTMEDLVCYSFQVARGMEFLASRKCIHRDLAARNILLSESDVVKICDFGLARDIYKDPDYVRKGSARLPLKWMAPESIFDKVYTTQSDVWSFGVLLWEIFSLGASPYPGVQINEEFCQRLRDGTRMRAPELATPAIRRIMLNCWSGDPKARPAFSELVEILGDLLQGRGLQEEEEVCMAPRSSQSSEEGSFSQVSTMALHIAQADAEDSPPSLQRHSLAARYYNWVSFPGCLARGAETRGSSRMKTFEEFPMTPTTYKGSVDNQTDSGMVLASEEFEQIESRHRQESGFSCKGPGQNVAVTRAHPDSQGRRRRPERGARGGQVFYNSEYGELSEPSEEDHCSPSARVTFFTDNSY

DCLK1 (human) = DCLK1 (human) (UniProt O15075)
AKT1 (human) = AKT1 (human) (UniProt P31749)
[1] = system: ABL1 (human), P00519 [M351T]
PDPK1 (human) = PDPK1 (human) (UniProt O15530)
MAPK11 (human) = MAPK11 (human) (UniProt Q15759)
STK32C (human) = STK32C (human) (UniProt Q86UX6)
RPS6KA4 KD1 (human) = RPS6KA4 KD1 (human) (UniProt O75676)
ACVR1B (human) = ACVR1B (human) (UniProt P36896)
PIK3CD (human) = PIK3CD (human) (UniProt O00329)
PIK3CD (human), sequence (O00329 whole entry, looked up): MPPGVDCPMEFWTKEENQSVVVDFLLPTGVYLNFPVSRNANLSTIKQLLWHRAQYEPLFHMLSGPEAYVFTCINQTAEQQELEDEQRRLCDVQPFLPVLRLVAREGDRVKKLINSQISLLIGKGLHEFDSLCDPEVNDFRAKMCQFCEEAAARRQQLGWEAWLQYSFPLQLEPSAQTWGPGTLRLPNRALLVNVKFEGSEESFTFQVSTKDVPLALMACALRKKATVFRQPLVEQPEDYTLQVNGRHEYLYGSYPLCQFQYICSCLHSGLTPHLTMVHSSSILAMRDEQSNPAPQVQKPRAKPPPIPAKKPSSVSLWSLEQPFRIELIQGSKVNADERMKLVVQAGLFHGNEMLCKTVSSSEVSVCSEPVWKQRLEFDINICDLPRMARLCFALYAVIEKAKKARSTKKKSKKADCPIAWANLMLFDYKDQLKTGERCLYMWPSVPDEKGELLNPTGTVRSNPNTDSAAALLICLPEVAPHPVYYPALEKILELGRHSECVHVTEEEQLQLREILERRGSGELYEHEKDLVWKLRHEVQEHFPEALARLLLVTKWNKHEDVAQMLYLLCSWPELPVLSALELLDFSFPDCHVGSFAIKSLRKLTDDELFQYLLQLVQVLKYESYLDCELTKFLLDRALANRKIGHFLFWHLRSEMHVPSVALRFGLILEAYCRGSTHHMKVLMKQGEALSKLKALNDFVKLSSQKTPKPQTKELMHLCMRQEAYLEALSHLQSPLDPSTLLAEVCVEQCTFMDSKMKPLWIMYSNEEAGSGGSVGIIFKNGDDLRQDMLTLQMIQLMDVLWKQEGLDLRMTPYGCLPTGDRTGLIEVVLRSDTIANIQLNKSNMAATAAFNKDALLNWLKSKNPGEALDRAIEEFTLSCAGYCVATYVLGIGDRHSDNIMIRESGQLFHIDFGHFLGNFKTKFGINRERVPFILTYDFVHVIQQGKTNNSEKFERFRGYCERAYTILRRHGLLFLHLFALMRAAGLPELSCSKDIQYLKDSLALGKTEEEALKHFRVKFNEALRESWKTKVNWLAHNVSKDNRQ

PRKG2 (human) = PRKG2 (human) (UniProt Q13237)
SRMS (human) = SRMS (human) (UniProt Q9H3Y6)
PLK3 (human) = PLK3 (human) (UniProt Q9H4B4)
MAPK14 (human) = MAPK14 (human) (UniProt Q16539)
MAPK14 (human), sequence (Q16539 whole entry, looked up): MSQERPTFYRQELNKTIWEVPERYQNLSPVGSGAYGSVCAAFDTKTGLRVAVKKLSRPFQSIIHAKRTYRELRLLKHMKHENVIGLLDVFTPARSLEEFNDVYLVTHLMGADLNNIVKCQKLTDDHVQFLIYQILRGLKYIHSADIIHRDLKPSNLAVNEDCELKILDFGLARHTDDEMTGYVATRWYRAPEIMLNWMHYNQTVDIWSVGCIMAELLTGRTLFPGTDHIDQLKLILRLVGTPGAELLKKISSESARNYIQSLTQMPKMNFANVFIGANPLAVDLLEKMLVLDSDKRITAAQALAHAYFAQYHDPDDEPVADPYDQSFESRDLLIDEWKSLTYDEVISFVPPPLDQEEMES

BLK (human) = BLK (human) (UniProt P51451)
PTK6 (human) = PTK6 (human) (UniProt Q13882)
STK35 (human) = STK35 (human) (UniProt Q8TDR2)
HCK (human) = HCK (human) (UniProt P08631)
TESK1 (human) = TESK1 (human) (UniProt Q15569)
IRAK3 (human) = IRAK3 (human) (UniProt Q9Y616)
CDC2L2 (human) = CDC2L2 (human) (UniProt Q9UQ88)
NTRK2 (human) = NTRK2 (human) (UniProt Q16620)
FGR (human) = FGR (human) (UniProt P09769)
INSRR (human) = INSRR (human) (UniProt P14616)
STK38L (human) = STK38L (human) (UniProt Q9Y2H1)
FYN (human) = FYN (human) (UniProt P06241)
EPHA8 (human) = EPHA8 (human) (UniProt P29322)
ROS1 (human) = ROS1 (human) (UniProt P08922)
ROS1 (human), sequence (P08922 whole entry, looked up): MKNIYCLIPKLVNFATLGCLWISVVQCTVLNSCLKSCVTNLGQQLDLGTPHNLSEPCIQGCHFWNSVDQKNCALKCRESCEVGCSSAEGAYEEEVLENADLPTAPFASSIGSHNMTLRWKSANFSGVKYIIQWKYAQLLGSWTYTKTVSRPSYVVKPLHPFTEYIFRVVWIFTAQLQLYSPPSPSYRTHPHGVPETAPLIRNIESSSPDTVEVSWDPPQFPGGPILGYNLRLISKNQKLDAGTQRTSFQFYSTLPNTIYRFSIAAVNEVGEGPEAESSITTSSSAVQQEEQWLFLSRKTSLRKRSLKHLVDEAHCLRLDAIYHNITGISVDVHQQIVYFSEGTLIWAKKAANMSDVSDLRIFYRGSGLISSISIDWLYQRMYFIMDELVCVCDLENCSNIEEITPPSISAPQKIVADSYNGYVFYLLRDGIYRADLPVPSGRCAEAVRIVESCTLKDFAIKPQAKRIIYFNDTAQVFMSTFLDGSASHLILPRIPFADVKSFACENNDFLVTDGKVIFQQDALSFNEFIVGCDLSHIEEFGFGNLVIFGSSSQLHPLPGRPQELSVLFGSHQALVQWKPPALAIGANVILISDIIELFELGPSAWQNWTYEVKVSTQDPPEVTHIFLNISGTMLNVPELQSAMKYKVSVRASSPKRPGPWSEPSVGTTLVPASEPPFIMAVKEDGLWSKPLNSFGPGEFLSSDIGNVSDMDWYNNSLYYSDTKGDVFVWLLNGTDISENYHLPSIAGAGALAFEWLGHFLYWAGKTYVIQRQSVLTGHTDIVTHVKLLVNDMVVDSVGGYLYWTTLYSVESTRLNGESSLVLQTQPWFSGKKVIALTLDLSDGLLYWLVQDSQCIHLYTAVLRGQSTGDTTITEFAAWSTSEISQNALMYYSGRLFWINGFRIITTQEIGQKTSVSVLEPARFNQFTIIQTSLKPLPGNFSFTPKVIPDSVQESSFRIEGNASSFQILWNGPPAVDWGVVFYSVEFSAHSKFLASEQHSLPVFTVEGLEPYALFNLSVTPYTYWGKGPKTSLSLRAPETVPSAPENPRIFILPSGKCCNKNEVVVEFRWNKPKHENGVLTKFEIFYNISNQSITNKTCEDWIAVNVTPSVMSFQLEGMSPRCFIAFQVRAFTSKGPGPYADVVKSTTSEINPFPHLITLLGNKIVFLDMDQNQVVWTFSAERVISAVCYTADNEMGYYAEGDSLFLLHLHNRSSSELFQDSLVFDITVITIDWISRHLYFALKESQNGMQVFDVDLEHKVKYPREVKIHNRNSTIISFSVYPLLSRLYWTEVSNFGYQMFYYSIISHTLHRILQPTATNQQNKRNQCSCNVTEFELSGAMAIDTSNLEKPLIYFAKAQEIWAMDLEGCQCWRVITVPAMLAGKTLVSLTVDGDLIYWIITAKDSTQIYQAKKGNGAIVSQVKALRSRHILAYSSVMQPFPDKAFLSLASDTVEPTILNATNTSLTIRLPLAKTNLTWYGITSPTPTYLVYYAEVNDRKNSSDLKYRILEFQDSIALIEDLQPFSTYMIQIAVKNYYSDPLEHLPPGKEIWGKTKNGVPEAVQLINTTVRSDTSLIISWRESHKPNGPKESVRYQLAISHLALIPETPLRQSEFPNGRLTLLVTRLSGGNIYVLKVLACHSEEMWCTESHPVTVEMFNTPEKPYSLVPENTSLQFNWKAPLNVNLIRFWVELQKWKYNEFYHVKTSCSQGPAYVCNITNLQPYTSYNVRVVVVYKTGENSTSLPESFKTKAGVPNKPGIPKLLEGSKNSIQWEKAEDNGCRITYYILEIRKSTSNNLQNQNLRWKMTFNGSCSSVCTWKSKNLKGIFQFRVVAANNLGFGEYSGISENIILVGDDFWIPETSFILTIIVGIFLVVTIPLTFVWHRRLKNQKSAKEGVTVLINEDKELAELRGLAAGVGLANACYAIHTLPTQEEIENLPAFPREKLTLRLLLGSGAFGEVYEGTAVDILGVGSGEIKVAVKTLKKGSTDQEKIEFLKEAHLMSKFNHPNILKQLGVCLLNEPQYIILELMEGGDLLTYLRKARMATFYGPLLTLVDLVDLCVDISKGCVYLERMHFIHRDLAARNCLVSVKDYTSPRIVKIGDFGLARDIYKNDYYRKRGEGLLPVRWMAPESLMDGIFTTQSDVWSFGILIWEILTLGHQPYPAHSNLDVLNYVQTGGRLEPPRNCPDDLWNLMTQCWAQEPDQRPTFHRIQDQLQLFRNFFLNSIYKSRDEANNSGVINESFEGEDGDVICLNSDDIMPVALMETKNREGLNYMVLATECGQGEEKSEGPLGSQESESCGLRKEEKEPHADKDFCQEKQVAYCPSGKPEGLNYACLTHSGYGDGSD

STK3 (human) = STK3 (human) (UniProt Q13188)
BMPR2 (human) = BMPR2 (human) (UniProt Q13873)
MYLK2 (human) = MYLK2 (human) (UniProt Q9H1R3)
EPHB3 (human) = EPHB3 (human) (UniProt P54753)
[2] = system: RET (human), P07949 [V804M]
MLTK (human) = MLTK (human) (UniProt Q9NYL2)
STK25 (human) = STK25 (human) (UniProt O00506)

COc1cc(N2CCC(O)CC2)ccc1Nc1ncc2c(n1)N1CCc3cccc(c31)C(=O)N2C
kinase still bound, per cent of control (EPHA2 (human)): 95%
kinase still bound, per cent of control (MAP3K9 (human)): 96%
kinase still bound, per cent of control (CHEK2 (human)): 42%
kinase still bound, per cent of control (PAK6 (human)): 92%
kinase still bound, per cent of control (BRSK1 (human)): 100%
kinase still bound, per cent of control (MST1R (human)): 82%
kinase still bound, per cent of control (PTK2 (human)): 4.6%
kinase still bound, per cent of control (PRKD2 (human)): 45%
kinase still bound, per cent of control (FLT4 (human)): 93%
kinase still bound, per cent of control (DCLK1 (human)): 4.5%
kinase still bound, per cent of control (AKT1 (human)): 100%
kinase still bound, per cent of control [1]: 93%
kinase still bound, per cent of control (PDPK1 (human)): 100%
kinase still bound, per cent of control (MAPK11 (human)): 74%
kinase still bound, per cent of control (STK32C (human)): 75%
kinase still bound, per cent of control (RPS6KA4 KD1 (human)): 96%
kinase still bound, per cent of control (ACVR1B (human)): 100%
kinase still bound, per cent of control (PIK3CD (human)): 48%
kinase still bound, per cent of control (PRKG2 (human)): 96%
kinase still bound, per cent of control (SRMS (human)): 87%
kinase still bound, per cent of control (PLK3 (human)): 0.75%
kinase still bound, per cent of control (MAPK14 (human)): 61%
kinase still bound, per cent of control (BLK (human)): 100%
kinase still bound, per cent of control (PTK6 (human)): 100%
kinase still bound, per cent of control (STK35 (human)): 95%
kinase still bound, per cent of control (HCK (human)): 100%
kinase still bound, per cent of control (TESK1 (human)): 100%
kinase still bound, per cent of control (IRAK3 (human)): 84%
kinase still bound, per cent of control (CDC2L2 (human)): 100%
kinase still bound, per cent of control (NTRK2 (human)): 100%
kinase still bound, per cent of control (FGR (human)): 93%
kinase still bound, per cent of control (INSRR (human)): 78%
kinase still bound, per cent of control (STK38L (human)): 94%
kinase still bound, per cent of control (FYN (human)): 100%
kinase still bound, per cent of control (EPHA8 (human)): 92%
kinase still bound, per cent of control (ROS1 (human)): 29%
kinase still bound, per cent of control (STK3 (human)): 84%
kinase still bound, per cent of control (BMPR2 (human)): 100%
kinase still bound, per cent of control (MYLK2 (human)): 98%
kinase still bound, per cent of control (EPHB3 (human)): 100%
kinase still bound, per cent of control [2]: 93%
kinase still bound, per cent of control (MLTK (human)): 100%
kinase still bound, per cent of control (STK25 (human)): 99%

— the kinase profiling compilation of Christmann-Franck et al. (2016)
